Source: EP1370276B1, “INTERCELLULAR COMMUNICATION FACILITATING COMPOUNDS AND THEIR MEDICAL USE” (Zealand Pharma A/S, priority 2001, dated 2002)
pEC50: −log10 of the molar value.

Legend:
[1] = system: isolated perfused rabbit hearts; test: Isolated perfused rabbit heart (Langendorff), APD90 dispersion during hypokalemic ischemia; conditions: 10^-10 mol/l
[2] = system: cAMP formation in CHO cells; test: Inhibition of forskoline stimulated cAMP formation in CHO cells; assay type: cell-based; conditions: 10 µM forskoline, 20 min, cells pre-treated with glucose and oxygen deprivation
Protocol: CHO cells are seeded in 96-well microtiter plates in a density of 6,000 cells/cm^2 (∼ 2,000 cells/well) and grown for 4 days in vitro in 200 µl/well of growth media as described in the previous section.
On the day of analysis cells are removed from the incubator and washed twice with 200 µl pre-warmed (37°C) D-PBS (pH 7.2) to remove serum. Cells are incubated for 10 min in glucose free D-PBS and an N2-atmosphere as described in the previous section.
CHO cells are incubated at 37° C in D-PBS (pH 7.2) containing 6 mM glucose, 2.0 mM IBMX (phospodiesterase blocker), 10 µM forskoline (stimulates cAMP formation) and increasing concentrations of test peptide. The reaction is stopped after 20 min by addition of 20 µl 0.5 M HCl and left for at least 20 min at room temperature.
The content of cAMP is analysed by mixing 20 µl of the acid cell extract into FlashPlate™ wells (NEN assay kit SMP001) containing 180 µl [^12SI]cAMP tracer solution. FlashPlates™ are incubated overnight at 4° C and plate bound radioactivity counted in TopCount (Packard Instrument). Data are calculated as described in the previous section.

[3] = system: alkaline phosphatase (ALP) activity of human osteoblasts; test: Alkaline phosphatase assay in human osteoblasts; assay type: cell-based
Protocol: Human osteblast cells (hOB): Cells were isolated from human bone marrow obtained by puncture of the posterior iliac spine of healthy volunteers (aged 20-36): 10-15 ml marrow material was collected in 15 ml PBS+Ca,Mg (Life Technologies, Cat.No. 14040) with 100 U/ml Heparin (Sigma, Cat.No. H-3149). The mononuclear fraction of the marrow was isolated on a Lymphoprep gradient (Nycomed Pharma, Cat.No. 1001967), by centrifugation at 2200 rpm for 30 min. After harvesting, the mononuclear fraction was washed once with culture medium and centrifuged at 1800 rpm for 10 min. Subsequently cells were counted and plated in culture medium at 8x10^6 cells/100 mm dish. hOB medium (all reagents obtained from Life Technologies): MEM w/o Phenol Red w/ Glutamax (Cat.No. 041-93013) supplemented with 10% heat inactivated fetal calf serum (Cat.No. 10106) and 0.1% Penicillin/Streptomycin (Cat.No. 15140). Medium was changed the following day and the cells were cultured at 37°C in 5%CO2 with medium change every 7 days. After 3-4 weeks of culture the cells had reached 70% confluence. […]
• Day 1: Cells were plated in 96-well plates at a conc. of 8000 cells/well (hOB) or 3000 cells/well (ROS) in 200 µl normal culture medium. • Day 2: Medium was changed on the cells. • Day 4: (Day 3 for ROS): Cells were washed with 200 µl MEM, 0.1% BSA (Sigma, Cat.No. A-9418). […] Absorbance was measured using a plate reader at 405 nm.

[4] = system: phosphoinositol turnover in rat primary cardiomyocytes; test: Phosphoinositol turnover in primary cardiomyocyte cultures; assay type: cell-based; conditions: for pEC50: enhancement of phospho-inositol turnover
Protocol: Neonatal Wistar rats (1-2 days old) are used. Hank's calcium- and magnesium-free balanced salt solution, buffered with 10 mM HEPES is used for washing during cell separation procedures. The hearts are excised, the ventricles isolated and the tissue cut into small pieces. The myocardial cells are isolated by stepwise enzymatic degradation with collagenase 0.05%, as described by ^[35]. After repeated rounds of centrifugation and washing, the precipitated cells are resuspended in culture medium M199 with Earle's salt, 10% NCS, penicillin (75 U/mL), and streptomycin (75 U/mL) and pre-plated in a Petri dish for 90 minutes. The non-adherent cells are collected in the culture medium and plated in multidishes at 2.5*10^5 cells/well. The cultures are kept in a water-saturated CO2-incubator at 37°C. The cardiomyocyte cultures are used for analyses after 6-7 days.
Cardiomyocyte cultures are incubated for 48 hours in culture medium containing 4 µCi/mL myo-[2-^3H]inositol to label the inositol phospholipids. On the day of analysis the medium is replaced by a buffer solution containing lithium and incubated at 37°C, as described by Meier et al. ^[36]. After at least five minutes this buffer is replaced by the same volume of buffer containing test compound and incubated for exactly 20 minutes. The reaction is stopped by rapid replacement of the buffer by ice cold 4%v/v perchloric acid (PCA) and incubation for at least 20 minutes at 0°C. The PCA-extract is neutralised and the [^3H]inosltol phosphates are separated by anion-exchange chromatography using Amprep™ columns containing 100 mg SAX Quaternary amine. The [^3H]inositol mono-phosphates are eluted and radioactivity in the fraction measured by liquid scintillation counting.
Before adding test substances to the cultures, the cells are depleted of glucose and oxygen by incubating them in a N2-atmosphere in glucose-free lithium-buffer for 10 minutes at 37°C. Control cells are incubated likewise only at normal atmospheric conditions and in a buffer containing glucose.

human osteoblast = test: Lucifer Yellow microinjection dye transfer, human osteoblasts; assay type: cell-based; conditions: 10 minutes, after 48 hours hypoxia 3-6% O2 (7 cells before)
Protocol: Human osteblast cells (hOB): Cells were isolated from human bone marrow obtained by puncture of the posterior iliac spine of healthy volunteers (aged 20-36): 10-15 ml marrow material was collected in 15 ml PBS+Ca,Mg (Life Technologies, Cat.No. 14040) with 100 U/ml Heparin (Sigma, Cat.No. H-3149). The mononuclear fraction of the marrow was isolated on a Lymphoprep gradient (Nycomed Pharma, Cat.No. 1001967), by centrifugation at 2200 rpm for 30 min. After harvesting, the mononuclear fraction was washed once with culture medium and centrifuged at 1800 rpm for 10 min. Subsequently cells were counted and plated in culture medium at 8x10^6 cells/100 mm dish. hOB medium (all reagents obtained from Life Technologies): MEM w/o Phenol Red w/ Glutamax (Cat.No. 041-93013) supplemented with 10% heat inactivated fetal calf serum (Cat.No. 10106) and 0.1% Penicillin/Streptomycin (Cat.No. 15140). Medium was changed the following day and the cells were cultured at 37°C in 5%CO2 with medium change every 7 days. After 3-4 weeks of culture the cells had reached 70% confluence. The medium was then supplemented with 100 nM Dexamethasone (Sigma, Cat.No. D-4902) for 7 days. Cells were then plated for video imaging experiments: a 25 mm #1 glass coverslip was
placed in a 35 mm dish (or each well of a 6-well multidish), cells were plated at 2.5×10^5 cells/coverslip and cultured for 2-3 days before use. […]

[5] = system: ventricular reentry arrhytmias; test: Ventricular reentry arrhythmias in dogs after coronary artery occlusion; assay type: in vivo; conditions: after the lowest i.v. dose (bolus: 0.1 µg/kg; infusion: 2 ng/kg/min), after CAO
Protocol: Three dogs were studied in the anesthetized, open chest state to facilitate electrode placement for mapping. α-chloralose was given as a bolus (200 mg/kg) and then a constant Infusion at 8 mg/kg/hr (dissolved in polyethylene glycol, MW=200). The femoral vein and artery was cannulated for administration of fluid and drugs and for measurement of ascending aortic pressure, respectively.
The sinus node was clamped and the atrial appendage was paced with a programmable stimulator with constant current outputs at two times diastolic threshold. Pacing rate was ≥200 b/min to control heart rates. […] Late ventricular diastolic threshold was measured during each intervention; the pacing current was four times threshold.
Test sites were chosen along the shaft of 16 pole needles (J. Kassell, Fayetteville, NC); each pole completely surrounds the needle shaft to prevent directionality of needle orientation from recording of adjacent Purkinje strands. Six bipolar electrograms (1 mm spacing) were recorded sequentially down the shaft of the needle by amplifying up to 1000 times, filtering from 3-1300 Hz and recording via oscilloscope during atrial pacing. Four intramural electrograms are recorded on each multipolar needle. […] Inter-needle distance measured on epicardium varies over 6-10 mm in dogs weighing 12-16 kg. […]

## Ac-D-Tyr-D-Pro-D-4Hyp-Gly-D-Ala-Gly-NH2 [Compound 2]
[1]
  increase in APD90 dispersion during hypokalemic, acute myocardial ischemia: prevented
[2]
  pEC50: 8.21
[3]; 1 × 10^-13 to 1 × 10^-6, normal culture conditions, 4 days
  ALP activity: increased ALP activity at most of the concentrations tested
[3]; 5% O2, four days, 10^-11 to 10^-8 mol/l
  stimulation of ALP activity during hypoxia compared with normoxia: about 15%
[4]; 100 nM + noradrenaline (300 nM), anoxia and glucose deprivation
  increase in phospho-inositol turnover compared with noradrenaline alone: about 70%
[4]; 100 nM, control conditions
  effect on noradrenaline (300 nM) induced increase in phospho-inositol turnover: had no further effect
[4]; Glucose and oxygen deprivation
  pEC50: 8.00
[4]; Normal conditions
  pEC50: 8.00
Human osteoblast
  dye transfer (number of cells containing Lucifer Yellow): 9 cells
[5]
  inducibility of epicardial reentry VT: VT was no longer inducible
